Reference: paper PMC6130710 (Pharmaceutical Biology, 2017)
In brackets after ≈: the same amount, converted by molar mass. Like-named read-outs stand apart in the source and are kept apart here. Each block holds one compound with its values, some of them ahead of it.

Experiments:
[1] = biological target: rat intestinal α-glucosidase (maltase); assay: rat intestinal α-glucosidase (maltase) inhibition assay; format: biochemical; conditions: rat intestine; for IC50: compounds, Table 2
Experimental: (§1) 1 D and 2 D NMR spectra were recorded on a Bruker 400 AVANCE spectrometer, and the chemical shifts were reported in parts per million (ppm) using tetramethylsilane (TMS) as the internal standard. Melting points were determined on a Fisher-Johns Melting Point apparatus. Adsorbents such as silica gel 60 (Merck) were used for column and radial (chromatotron model 7924 T, Harrison Research) chromatographies. Merck silica gel 60F254 plates were used for TLC. HRESIMS spectra were obtained using a Bruker MICROTOF model mass spectrometer. UV-visible absorption spectra were recorded using a UV-2550 (SHIMADZU) UV-Vis spectrometer (Shimadzu, Kyoto, Japan). α-Glucosidase (EC 3.2.1.20) from Saccharomyces cerevisiae and 4-nitrophenyl-α-D-glucopyranoside (p-NPG) were obtained from Sigma-Aldrich (St. Louis, MO). Acarbose was obtained from Bayer Vitol Leverkusen, Germany. Rat intestinal acetone powder was supplied by Sigma Aldrich.
(§2) Moreover, previous procedure (Damsud et al. [2013]) was also applied to determine inhibitory activity of isolated compounds against intestinal α-glucosidases (maltase and sucrase). Briefly, 10 μL of the test sample and substrate solution (maltose: 10 mM, 20 μL; sucrose: 100 mM, 20 μL, respectively) in 0.1 M phosphate buffer (pH 6.9) were incubated at 37 °C (20 min for maltase and 60 min for sucrase). The mixture was discontinued in boiling water for 10 min, and glucose released from the reaction was converted to quinoneimine using a commercial Glu Kit (Human, Germany). The absorbance of final product was determined at 503 nm, and percent inhibition was calculated using the aforementioned equation.

[2] = DPPH radical scavenging activity
Experimental: The antioxidant activity of the extract was evaluated through the free radical scavenging effect on 2,2′-diphenyl-1-picrylhydrazyl (DPPH) (Sigma) radical as previously reported (Yen & Hsieh [1997]) with slight modifications. 100 μL of 0.10 mM DPPH ethanolic solution was added to 20 μL of the sample with various concentrations. The mixture was thoroughly mixed and kept in the dark for 30 min. The absorbance was measured at 517 nm using a Sunrise microplate reader spectrophotometer.

[3] = biological target: T1, α-Glucosidase (EC 3.2.1.20) from Saccharomyces cerevisiae (Baker's yeast) (Saccharomyces cerevisiae, UniProt P53341); assay: biochemical
T1 construct: purchased Sigma-Aldrich (St. Louis, MO)
Experimental: as §1, with “Acarbose was obtained from Bayer Vitol Leverkusen, Germany.” left out
The evaluation of the inhibitory activity of all compounds against yeast and rat intestinal (maltase and sucrase) α-glucosidases was applied from a previous procedure (Damsud et al. [2013]). The inhibitory effect against yeast α-glucosidase was determined using the protocol previously described. Briefly, 10 μL of sample was mixed with α-glucosidase (0.1 U/mL) in 1 mM phosphate buffer (pH 6.9) and incubated at 37 °C for 10 min. The reaction mixture was added with 1 mM p-nitrophenyl-α-D-glucopyranoside (PNPG, 50 μL) followed by additional 20 min incubation. p-Nitrophenoxide liberated from the reaction was quantified by a microplate reader (UV 405 nm) after the addition of 1 M Na2CO3 (100 μL). The percent inhibition was deduced using the following equation. (A0-A1)/A0×100 where A1 and A0 are absorbances with and without the sample, respectively.

[4] = biological target: T2, rat intestinal α-glucosidase (sucrase) (Rattus norvegicus, UniProt P23739); assay: rat intestinal α-glucosidase (sucrase) inhibition assay; format: biochemical; conditions: rat intestine; compounds, Table 2
T2 construct: tissue Sigma Aldrich; host or cells: rat intestinal acetone powder
Experimental: as §1, with “Acarbose was obtained from Bayer Vitol Leverkusen, Germany.” left out
as §2

[5] = biological target: T3, yeast α-glucosidase (Saccharomyces cerevisiae, UniProt P53341); assay: enzyme kinetic study (Lineweaver–Burk plots) against yeast α-glucosidase; format: biochemical
T3 construct: purchased Sigma-Aldrich (St. Louis, MO)
Excerpt: Figure 2S. Lineweaver-Burk plots for inhibitory activity of compound 2 against yeast α- […]
Figure 3S. Secondary plot of slope vs [I] for deduction of Ki of compound 2 against yeast α- […]
Figure 4S. Secondary plot of intercept vs [I] for deduction of K′i of compound 2 against yeast […]
Figure 5S. The hydrophobic analysis of compounds 1 (A) and 2 (B). The H-bond interactions were shown as green dotted lines and the hydrophobic interactions with surrounding amino acids are shown as arcs with spokes radiating towards the inhibitor. These schematic diagrams were generated using LigPlot+ software (Laskowski & Swindells, 2011).
Ahmad FBH, Moghaddam MG, Basri M, Abdul Rahman MB. 2010. Anticancer activity of 3-O-acylated betulinic acid derivatives obtained by enzymatic synthesis. Biosci […]

[6] = IC50 Baker's yeast α-glucosidase, compounds, Table 2
[7] = compounds, Table 2, read-out: IC50 Baker's yeast α-glucosidase

T2 sequence (P23739 1014-1841 limits assumed): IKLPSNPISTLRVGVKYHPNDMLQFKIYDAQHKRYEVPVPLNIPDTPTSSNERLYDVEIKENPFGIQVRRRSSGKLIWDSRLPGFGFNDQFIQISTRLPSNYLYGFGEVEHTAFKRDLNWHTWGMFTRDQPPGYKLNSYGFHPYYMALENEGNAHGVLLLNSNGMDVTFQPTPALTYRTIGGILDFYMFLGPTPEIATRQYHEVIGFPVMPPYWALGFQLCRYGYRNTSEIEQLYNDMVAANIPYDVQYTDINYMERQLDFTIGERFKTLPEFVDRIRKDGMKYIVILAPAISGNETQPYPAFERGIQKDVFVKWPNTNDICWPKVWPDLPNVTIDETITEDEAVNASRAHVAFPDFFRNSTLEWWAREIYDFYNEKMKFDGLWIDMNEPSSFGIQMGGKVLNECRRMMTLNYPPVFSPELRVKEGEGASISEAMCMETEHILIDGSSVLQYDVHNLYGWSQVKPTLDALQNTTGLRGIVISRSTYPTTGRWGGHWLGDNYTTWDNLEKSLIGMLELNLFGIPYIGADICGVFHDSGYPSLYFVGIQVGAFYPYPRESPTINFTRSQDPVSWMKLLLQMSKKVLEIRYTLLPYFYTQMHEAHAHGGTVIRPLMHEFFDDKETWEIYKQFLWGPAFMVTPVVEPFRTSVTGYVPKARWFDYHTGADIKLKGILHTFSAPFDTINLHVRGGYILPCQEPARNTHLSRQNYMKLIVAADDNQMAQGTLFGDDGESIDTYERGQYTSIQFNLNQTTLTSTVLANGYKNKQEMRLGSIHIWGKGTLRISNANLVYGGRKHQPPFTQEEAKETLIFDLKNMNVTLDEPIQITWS
T2 sequence (P23739 1-1013 partner limits assumed): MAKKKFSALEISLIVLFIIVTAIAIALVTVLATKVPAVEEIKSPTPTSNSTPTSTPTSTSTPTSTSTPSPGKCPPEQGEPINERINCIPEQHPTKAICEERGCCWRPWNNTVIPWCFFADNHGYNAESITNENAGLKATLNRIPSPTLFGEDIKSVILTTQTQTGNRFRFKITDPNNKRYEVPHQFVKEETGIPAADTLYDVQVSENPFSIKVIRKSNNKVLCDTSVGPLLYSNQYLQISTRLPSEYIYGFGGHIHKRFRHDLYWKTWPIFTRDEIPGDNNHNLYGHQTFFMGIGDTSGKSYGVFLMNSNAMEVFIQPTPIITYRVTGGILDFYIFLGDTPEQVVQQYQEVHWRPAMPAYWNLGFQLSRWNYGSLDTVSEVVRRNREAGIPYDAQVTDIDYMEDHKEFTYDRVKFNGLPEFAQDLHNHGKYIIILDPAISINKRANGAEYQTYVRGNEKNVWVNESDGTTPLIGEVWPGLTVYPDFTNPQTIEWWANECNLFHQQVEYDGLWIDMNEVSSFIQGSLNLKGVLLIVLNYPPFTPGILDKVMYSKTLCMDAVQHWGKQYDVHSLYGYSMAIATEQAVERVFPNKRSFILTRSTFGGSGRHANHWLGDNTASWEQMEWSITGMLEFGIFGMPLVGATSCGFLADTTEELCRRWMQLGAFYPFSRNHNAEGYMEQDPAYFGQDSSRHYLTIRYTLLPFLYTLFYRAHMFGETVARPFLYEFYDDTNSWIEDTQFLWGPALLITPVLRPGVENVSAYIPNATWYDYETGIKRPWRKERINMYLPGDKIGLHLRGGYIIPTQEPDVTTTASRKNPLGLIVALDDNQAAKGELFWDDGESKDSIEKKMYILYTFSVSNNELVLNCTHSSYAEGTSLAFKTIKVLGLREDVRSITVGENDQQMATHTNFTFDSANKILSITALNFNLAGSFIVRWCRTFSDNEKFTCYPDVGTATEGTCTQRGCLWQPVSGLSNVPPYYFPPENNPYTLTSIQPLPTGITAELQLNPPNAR
T1 sequence (P53341 whole entry): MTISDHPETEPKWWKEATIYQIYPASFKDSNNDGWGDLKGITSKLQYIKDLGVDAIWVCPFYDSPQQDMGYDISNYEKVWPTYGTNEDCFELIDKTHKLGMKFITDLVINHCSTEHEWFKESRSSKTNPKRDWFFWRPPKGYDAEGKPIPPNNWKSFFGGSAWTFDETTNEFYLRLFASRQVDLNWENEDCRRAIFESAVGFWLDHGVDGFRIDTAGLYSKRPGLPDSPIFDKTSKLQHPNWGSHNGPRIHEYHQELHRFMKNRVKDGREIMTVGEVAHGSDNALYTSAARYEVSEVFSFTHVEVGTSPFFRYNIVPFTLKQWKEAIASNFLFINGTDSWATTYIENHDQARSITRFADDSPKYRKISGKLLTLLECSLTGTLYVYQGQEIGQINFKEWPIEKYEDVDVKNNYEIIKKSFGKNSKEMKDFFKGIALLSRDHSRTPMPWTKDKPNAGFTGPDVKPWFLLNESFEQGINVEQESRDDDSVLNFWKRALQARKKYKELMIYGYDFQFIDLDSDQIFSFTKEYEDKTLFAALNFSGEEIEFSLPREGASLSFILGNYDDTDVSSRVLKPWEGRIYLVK
T3 sequence (P53341 whole entry): as above

IC50 [1]: 7.9 ± 0.94 µM
IC50 Maltase ([1]; fractions A-G, Table 1): 5.1 ± 940 µg/mL (≈ 7.9 µM)
SMILES: C[C@H]1O[C@H](O[C@H]2[C@H](O)[C@@H](O)[C@@H](O[C@H]3[C@H](O)[C@@H](O)C(O)O[C@@H]3CO)O[C@@H]2CO)[C@H](O)[C@@H](O)[C@@H]1N[C@H]1C=C(CO)[C@@H](O)[C@H](O)[C@H]1O (stereo partly drawn) [Acarbose, reference compound]

IC50 ([2]; compounds, Table 2): 328 ± 0.56 µM
IC50 DPPH ([2]; fractions A-G, Table 1): 72 ± 350 µg/mL (≈ 327 µM)
SMILES: Cc1cc(C(C)(C)C)c(O)c(C(C)(C)C)c1 [BHT, reference compound]

SMILES: C=C(C)[C@@H]1CC[C@]2(C)CC[C@]3(C)[C@H](CC[C@@H]4[C@@]5(C)CC[C@H](O)C(C)(C)[C@@H]5CC[C@]43C)[C@@H]12 [Compound 1, lupeol]
IC50 [3, 6]: 0.0372 ± 0.00022 mM
IC50 ([3]; experimental IC50 yeast α-glucosidase, restated in mM in docking section): 0.037 mM
IC50 [1]: > 3000 µM
IC50 [4]: > 3000 µM
IC50 ([2]; compounds, Table 2): > 10000 µM
IC50 DPPH ([2]; compounds, Table 2): no activity

SMILES: C=C(C)[C@@H]1CC[C@]2(C(=O)O)CC[C@]3(C)[C@H](CC[C@@H]4[C@@]5(C)CC[C@H](O)C(C)(C)[C@@H]5CC[C@]43C)[C@@H]12 [Compound 2, betunilic acid]
IC50 [3, 7]: 0.0163 ± 0.00203 mM
IC50 ([3]; restated in mM in docking section, read-out: experimental IC50 yeast α-glucosidase): 0.016 mM
IC50 [1]: > 3000 µM
IC50 [4]: > 3000 µM
IC50 ([2]; compounds, Table 2): > 10000 µM
IC50 DPPH ([2]; compounds, Table 2): no activity
mode of inhibition ([5]; Lineweaver–Burk plots, 0.063 and 1.3 mM of inhibitor): mixed mode inhibitor
K'i (uncompetitive component, from intercept plot) ([5]; secondary plot of intercept vs [I], Figure 4S): 0.019 mM

SMILES: C=C(C)[C@@H]1CC[C@]2(C(=O)O)CC[C@]3(C)[C@H](CC[C@@H]4[C@@]5(C)CC[C@H](OC(C)=O)C(C)(C)[C@@H]5CC[C@]43C)[C@@H]12 [Compound 2a]
IC50 [3, 7]: 0.0281 ± 0.00076 mM
IC50 [1]: > 3000 µM
IC50 [4]: > 3000 µM
IC50 ([2]; compounds, Table 2): > 10000 µM

SMILES: C=C(C)[C@@H]1CC[C@]2(C(=O)O)CC[C@]3(C)[C@H](CC[C@@H]4[C@@]5(C)CC[C@H](OC(=O)CC)C(C)(C)[C@@H]5CC[C@]43C)[C@@H]12 [Compound 2b]
IC50 [3, 7]: 0.0433 ± 0.00019 mM
IC50 [1]: > 3000 µM
IC50 [4]: > 3000 µM
IC50 ([2]; compounds, Table 2): > 10000 µM

SMILES: C=C(C)[C@@H]1CC[C@]2(C(=O)O)CC[C@]3(C)[C@H](CC[C@@H]4[C@@]5(C)CC[C@H](OC(=O)CCC)C(C)(C)[C@@H]5CC[C@]43C)[C@@H]12 [Compound 2c]
IC50 [3, 7]: 0.158 ± 0.00122 mM
IC50 [1]: > 3000 µM
IC50 [4]: > 3000 µM
IC50 ([2]; compounds, Table 2): > 10000 µM

SMILES: C=C(C)[C@@H]1CC[C@]2(C(=O)O)CC[C@]3(C)[C@H](CC[C@@H]4[C@@]5(C)CC[C@H](OC(=O)CCCC)C(C)(C)[C@@H]5CC[C@]43C)[C@@H]12 [Compound 2d]
IC50 [3, 7]: 0.269 ± 0.00322 mM
IC50 [1]: > 3000 µM
IC50 [4]: > 3000 µM
IC50 ([2]; compounds, Table 2): > 10000 µM

SMILES: C=C(C)[C@@H]1CC[C@]2(C(=O)O)CC[C@]3(C)[C@H](CC[C@@H]4[C@@]5(C)CC[C@H](OC(=O)CCCCC)C(C)(C)[C@@H]5CC[C@]43C)[C@@H]12 [Compound 2e]
IC50 [3, 7]: 0.0721 ± 0.00154 mM
IC50 [1]: > 3000 µM
IC50 [4]: > 3000 µM
IC50 ([2]; compounds, Table 2): > 10000 µM

SMILES: C=C(C)[C@@H]1CC[C@]2(C(=O)O)CC[C@]3(C)[C@H](CC[C@@H]4[C@@]5(C)CC[C@H](OC(=O)c6ccccc6)C(C)(C)[C@@H]5CC[C@]43C)[C@@H]12 [Compound 2f]
IC50 [3, 7]: 0.0731 ± 0.00096 mM
IC50 [1]: > 3000 µM
IC50 [4]: > 3000 µM
IC50 ([2]; compounds, Table 2): > 10000 µM

SMILES: C=C(C)[C@@H]1CC[C@]2(C(=O)N(C(=O)NC3CCCCC3)C3CCCCC3)CC[C@]3(C)[C@H](CC[C@@H]4[C@@]5(C)CC[C@H](O)C(C)(C)[C@@H]5CC[C@]43C)[C@@H]12 [Compound 2g]
IC50 [3, 7]: 0.23 ± 0.00011 mM
IC50 [1]: > 3000 µM
IC50 [4]: > 3000 µM
IC50 ([2]; compounds, Table 2): > 10000 µM
melting point: 193 to 194 °C

SMILES: C=C(C)[C@@H]1CC[C@]2(C(=O)N(C(=O)NC3CCCCC3)C3CCCCC3)CC[C@]3(C)[C@H](CC[C@@H]4[C@@]5(C)CC[C@H](OC(C)=O)C(C)(C)[C@@H]5CC[C@]43C)[C@@H]12 [Compound 2h]
IC50 [3, 7]: 0.281 ± 0.00089 mM
IC50 [1]: > 3000 µM
IC50 [4]: > 3000 µM
IC50 ([2]; compounds, Table 2): > 10000 µM

SMILES: C=C(C)[C@@H]1CC[C@]2(C(=O)N(C(=O)NC3CCCCC3)C3CCCCC3)CC[C@]3(C)[C@H](CC[C@@H]4[C@@]5(C)CC[C@H](OC(=O)CC)C(C)(C)[C@@H]5CC[C@]43C)[C@@H]12 [Compound 2i]
IC50 [3, 7]: 0.368 ± 0.00164 mM
IC50 [1]: > 3000 µM
IC50 [4]: > 3000 µM
IC50 ([2]; compounds, Table 2): > 10000 µM

SMILES: C=C(C)[C@@H]1CC[C@]2(C(=O)N(C(=O)NC3CCCCC3)C3CCCCC3)CC[C@]3(C)[C@H](CC[C@@H]4[C@@]5(C)CC[C@H](OC(=O)CCC)C(C)(C)[C@@H]5CC[C@]43C)[C@@H]12 [Compound 2j]
IC50 [3, 7]: > 0.6 mM
IC50 [1]: > 3000 µM
IC50 [4]: > 3000 µM
IC50 ([2]; compounds, Table 2): > 10000 µM

SMILES: C=C(C)[C@@H]1CC[C@]2(C(=O)N(C(=O)NC3CCCCC3)C3CCCCC3)CC[C@]3(C)[C@H](CC[C@@H]4[C@@]5(C)CC[C@H](OC(=O)CCCC)C(C)(C)[C@@H]5CC[C@]43C)[C@@H]12 [Compound 2k]
IC50 [3, 7]: > 0.6 mM
IC50 [1]: > 3000 µM
IC50 [4]: > 3000 µM
IC50 ([2]; compounds, Table 2): > 10000 µM

SMILES: C=C(C)[C@@H]1CC[C@]2(C(=O)N(C(=O)NC3CCCCC3)C3CCCCC3)CC[C@]3(C)[C@H](CC[C@@H]4[C@@]5(C)CC[C@H](OC(=O)CCCCC)C(C)(C)[C@@H]5CC[C@]43C)[C@@H]12 [Compound 2l]
IC50 [3, 7]: > 0.6 mM
IC50 [1]: > 3000 µM
IC50 [4]: > 3000 µM
IC50 ([2]; compounds, Table 2): > 10000 µM

IC50 [3, 7]: > 0.6 mM
IC50 [1]: 373 ± 1.05 µM
IC50 [4]: 1214 ± 2.01 µM
IC50 ([2]; compounds, Table 2): 3795 ± 0.42 µM
SMILES: COc1cc([C@H]2c3c(cc(OC)c(O)c3OC)C[C@@H](CO)[C@@H]2CO[C@@H]2O[C@H](CO)[C@@H](O)[C@H](O)[C@H]2O)cc(OC)c1O [Compound 4, (+)-lyoniresinol-3α-O-β-D-glucopyranoside]

SMILES: C[C@@H]1O[C@@H](O[C@H]2[C@H](Oc3c(-c4ccc(O)cc4)oc4cc(O)cc(O)c4c3=O)O[C@@H](C)[C@H](O)[C@H]2O)[C@H](O)[C@H](O)[C@H]1O [Compound 5, kaempferol-3-O-α-L-rhamnopyranosyl-(1→2)-α-L-rhamnopyrano side]
IC50 [3, 6]: > 0.6 mM
IC50 [1]: > 3000 µM
IC50 [4]: > 3000 µM
IC50 ([2]; compounds, Table 2): 6019 ± 1.36 µM

SMILES: C[C@@H]1O[C@@H](O[C@H]2[C@H](Oc3c(-c4ccc(O)c(O)c4)oc4cc(O)cc(O)c4c3=O)O[C@@H](C)[C@H](O)[C@H]2O)[C@H](O)[C@H](O)[C@H]1O [Compound 6, horridin]
IC50 [3, 6]: > 0.6 mM
IC50 [1]: > 3000 µM
IC50 [4]: > 3000 µM
IC50 ([2]; compounds, Table 2): 42.8 ± 0.83 µM

IC50 ([2]; compounds, Table 2): 158 ± 1.9 µM
IC50 DPPH ([2]; fractions A-G, Table 1): 28 ± 1560 µg/mL (≈ 159 µM)
SMILES: O=C1O[C@H]([C@@H](O)CO)C(O)=C1O [Vitamin C, reference compound]
